Legend:
[1] = system: crabgrass; assay: Test B pre/postemergence crabgrass; assay type: in vivo, Digitaria sanguinalis
How it was run: (§1)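 Herbicidal effect was estimated by eye on a ten-point control scale after plants spent twelve to sixteen days in a greenhouse following soil or foliar treatment. Foliar sprays targeted plants at one to four leaves; all doses were formulated in a non-phytotoxic solvent with surfactant.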

[2] = system: surinam grass; assay: Test B pre/postemergence surinam grass; assay type: in vivo, Brachiaria decumbens
How it was run: as §1

[3] = system: smallflower flatsedge; assay: Test B flood test smallflower flatsedge; assay type: in vivo, Cyperus difformis
How it was run: (§2)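 Each value is a visual injury score relative to controls, with 10 meaning complete control and 0 no effect. Evaluation took place twelve to sixteen days after the 2-leaf-stage plants were treated and kept in the greenhouse.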

[4] = system: bamyardgrass; assay: Test B flood test barnyardgrass; assay type: in vivo, Echinochloa crus-galli
How it was run: as §2

[5] = system: blackgrass; assay: Test B pre/postemergence blackgrass; assay type: in vivo, Alopecurus myosuroides
How it was run: as §1

[6] = system: corn; assay: Test B pre/postemergence corn; assay type: in vivo, Zea mays
How it was run: as §1

[7] = system: soybean; assay: Test B pre/postemergence soybean; assay type: in vivo, Glycine max
How it was run: as §1

[8] = system: giant foxtail; assay: Test B pre/postemergence giant foxtail; assay type: in vivo, Setaria faberii
How it was run: as §1

[9] = system: cocklebur; assay: Test B pre/postemergence cocklebur; assay type: in vivo, Xanthium strumarium
How it was run: as §1

[10] = system: rape; assay: Test B pre/postemergence rape; assay type: in vivo, Brassica napus
How it was run: as §1

[11] = system: pigweed; assay: Test B pre/postemergence pigweed; assay type: in vivo, Amaranthus retroflexus
How it was run: as §1

[12] = system: sugar beet; assay: Test B pre/postemergence sugar beet; assay type: in vivo, Beta vulgaris
How it was run: as §1

[13] = system: rice; assay: Test B flood test rice; assay type: in vivo, Oryza sativa
How it was run: as §2

[14] = system: duck salad; assay: Test B flood test duck salad; assay type: in vivo, Heteranthera limosa
How it was run: as §2

[15] = system: wheat; assay: Test B pre/postemergence wheat; assay type: in vivo, Triticum aestivum
How it was run: as §1

[16] = system: purple nutsedge; assay: Test B pre/postemergence purple nutsedge; assay type: in vivo, Cyperus rotundus
How it was run: as §1

[17] = Preemergence, Rate 62 g/ha, scale of 0 to 10 where 0 is no effect and 10 is complete control
[18] = Preemergence, Rate 250 g/ha, scale of 0 to 10 where 0 is no effect and 10 is complete control
[19] = Preemergence, Rate 500 g/ha, scale of 0 to 10 where 0 is no effect and 10 is complete control
[20] = Rate 62 g/ha, Postemergence, scale of 0 to 10 where 0 is no effect and 10 is complete control
[21] = Rate 125 g/ha, Postemergence, scale 0 to 10
[22] = Rate 125 g/ha, Preemergence, scale of 0 to 10 where 0 is no effect and 10 is complete control
[23] = Rate 500 g/ha, Postemergence, scale 0 to 10
[24] = Rate 62 g/ha, headed Pre-emergence (flood test species), scale 0 to 10 (0 no effect, 10 complete control)
[25] = Rate 125 g/ha, Pre-emergence, flood test species, scale 0 to 10 where 0 is no effect and 10 is complete control
[26] = Rate 250 g/ha, Pre-emergence, flood-test species, scale 0 to 10, 0 is no effect, 10 is complete control
[27] = Rate 500 g/ha, Pre-emergence, flood test species, scale 0 to 10 (0 no effect, 10 complete control)

For `CC(C)N(C(=O)n1oc(=O)n(CC(=O)C(C)(C)C)c1=O)c1ccc(F)cc1` [Compound 216], the “Crabgrass plant response rating” value [1, 17] was 0, the “Crabgrass plant response rating” value [1, 18] was 8 and the “Plant response rating, Crabgrass” value [1, 19] was 8. For the same molecule, the “Crabgrass plant response rating” value [1, 20] was 0, the “Crabgrass plant response rating” value [1, 21] was 2 and the “Crabgrass plant response rating” value [1, 22] was 3. The “Plant response rating (0 to 10; 0 is no effect, 10 is complete control), Crabgrass” value ([1]; Rate 250 g/ha, Postemergence) was 4, the “Crabgrass plant response rating” value [1, 23] was 7 and the “B. signalgrass plant response rating” value [2, 17] was 0. The “B. signalgrass plant response rating” value ([2]; Preemergence, Rate 250 g/ha, scale 0 to 10, 0 is no effect, 10 is complete control) was 4, the “Plant response rating, B. signalgrass” value [2, 19] was 4 and the “B. signalgrass plant response rating” value [2, 20] was 0. For the same molecule, the “B. signalgrass plant response rating” value ([2]; Rate 125 g/ha, Postemergence, scale 0 (no effect) to 10 (complete control)) was 2, the “B. signalgrass plant response rating” value [2, 22] was 1 and the “Plant response rating (0 to 10; 0 is no effect, 10 is complete control), B. signalgrass” value ([2]; Rate 250 g/ha, Postemergence) was 5. For the same molecule, the “B. signalgrass plant response rating” value ([2]; Rate 500 g/ha, Postemergence, scale 0 to 10, 0 no effect, 10 complete control) was 8, the “S. Flatsedge plant response rating” value [3, 24] was 0 and the “S. Flatsedge plant response rating” value [3, 25] was 0. For the same molecule, the “S. Flatsedge plant response rating” value [3, 26] was 0, the “S. Flatsedge plant response rating” value [3, 27] was 0 and the “Barnyardgrass plant response rating” value [4, 24] was 0. For the same molecule, the “Barnyardgrass plant response rating” value [4, 25] was 0, the “Barnyardgrass plant response rating” value [4, 26] was 0 and the “Barnyardgrass plant response rating” value [4, 27] was 0. The “Blackgrass plant response rating” value [5, 17] was 0, the “Blackgrass plant response rating” value [5, 18] was 4 and the “Plant response rating, Blackgrass” value [5, 19] was 4. The “Blackgrass plant response rating” value [5, 20] was 0, the “Blackgrass plant response rating” value [5, 21] was 4 and the “Blackgrass plant response rating” value [5, 22] was 2. The “Plant response rating (0 to 10; 0 is no effect, 10 is complete control), Blackgrass” value ([5]; Rate 250 g/ha, Postemergence) was 8, the “Blackgrass plant response rating” value [5, 23] was 8 and the “Corn plant response rating” value [6, 17] was 0. For the same molecule, the “Corn plant response rating” value [6, 18] was 0, the “Plant response rating, Corn” value [6, 19] was 0 and the “Corn plant response rating” value [6, 20] was 0. The “Corn plant response rating” value [6, 21] was 0, the “Corn plant response rating” value [6, 22] was 0 and the “Plant response rating (0 to 10; 0 is no effect, 10 is complete control), Corn” value ([6]; Rate 250 g/ha, Postemergence) was 2. The “Corn plant response rating” value [6, 23] was 3, the “Soybean plant response rating” value [7, 17] was 0 and the “Soybean plant response rating” value [7, 18] was 0. The “Plant response rating, Soybean” value [7, 19] was 0, the “Soybean plant response rating” value [7, 20] was 1 and the “Soybean plant response rating” value [7, 21] was 1. The “Soybean plant response rating” value [7, 22] was 0, the “Plant response rating (0 to 10; 0 is no effect, 10 is complete control), Soybean” value ([7]; Rate 250 g/ha, Postemergence) was 1 and the “Soybean plant response rating” value [7, 23] was 2. The “Giant foxtail plant response rating” value [8, 17] was 0, the “Giant foxtail plant response rating” value [8, 18] was 7 and the “Plant response rating, Giant foxtail” value [8, 19] was 9. The “Giant foxtail plant response rating” value [8, 20] was 0, the “Giant foxtail plant response rating” value [8, 21] was 2 and the “Giant foxtail plant response rating” value [8, 22] was 6. The “Plant response rating (0 to 10; 0 is no effect, 10 is complete control), Giant foxtail” value ([8]; Rate 250 g/ha, Postemergence) was 4, the “Giant foxtail plant response rating” value [8, 23] was 6 and the “Cocklebur plant response rating” value [9, 17] was 0. For the same molecule, the “Cocklebur plant response rating” value [9, 18] was 0, the “Plant response rating, Cocklebur” value [9, 19] was 0 and the “Cocklebur plant response rating” value [9, 20] was 0. For the same molecule, the “Cocklebur plant response rating” value [9, 21] was 0, the “Cocklebur plant response rating” value [9, 22] was 0 and the “Plant response rating (0 to 10; 0 is no effect, 10 is complete control), Cocklebur” value ([9]; Rate 250 g/ha, Postemergence) was 0. For the same molecule, the “Cocklebur plant response rating” value [9, 23] was 3, the “Rape plant response rating” value [10, 17] was 0 and the “Rape plant response rating” value [10, 18] was 0. For the same molecule, the “Plant response rating, Rape” value [10, 19] was 0, the “Rape plant response rating” value [10, 20] was 0 and the “Rape plant response rating” value [10, 21] was 0. For the same molecule, the “Rape plant response rating” value [10, 22] was 0, the “Plant response rating (0 to 10; 0 is no effect, 10 is complete control), Rape” value ([10]; Rate 250 g/ha, Postemergence) was 0 and the “Rape plant response rating” value [10, 23] was 3. The “Redroot pigweed plant response rating” value [11, 17] was 0, the “Redroot pigweed plant response rating” value [11, 18] was 2 and the “Plant response rating, Redroot pigweed” value [11, 19] was 8. The “Redroot pigweed plant response rating” value [11, 20] was 0, the “Redroot pigweed plant response rating” value [11, 21] was 0 and the “Redroot pigweed plant response rating” value [11, 22] was 0. The “Plant response rating (0 to 10; 0 is no effect, 10 is complete control), Redroot pigweed” value ([11]; Rate 250 g/ha, Postemergence) was 2, the “Redroot pigweed plant response rating” value [11, 23] was 3 and the “Sugarbeets plant response rating” value [12, 17] was 0. The “Sugarbeets plant response rating” value [12, 18] was 0, the “Plant response rating, Sugarbeets” value [12, 19] was 0 and the “Sugarbeets plant response rating” value [12, 20] was 0. For the same molecule, the “Sugarbeets plant response rating” value [12, 21] was 0, the “Sugarbeets plant response rating” value [12, 22] was 0 and the “Plant response rating (0 to 10; 0 is no effect, 10 is complete control), Sugarbeets” value ([12]; Rate 250 g/ha, Postemergence) was 0. The “Sugarbeets plant response rating” value [12, 23] was 2, the “Rice plant response rating” value [13, 24] was 0 and the “Rice plant response rating” value [13, 25] was 0. The “Rice plant response rating” value [13, 26] was 0, the “Rice plant response rating” value [13, 27] was 0 and the “Ducksalad plant response rating” value [14, 24] was 0. For the same molecule, the “Ducksalad plant response rating” value [14, 25] was 0, the “Ducksalad plant response rating” value [14, 26] was 0 and the “Ducksalad plant response rating” value [14, 27] was 0. For the same molecule, the “Wheat plant response rating” value [15, 17] was 0, the “Wheat plant response rating” value [15, 18] was 0 and the “Plant response rating, Wheat” value [15, 19] was 0. The “Wheat plant response rating” value [15, 20] was 0, the “Wheat plant response rating” value [15, 21] was 0 and the “Wheat plant response rating” value [15, 22] was 0. The “Plant response rating (0 to 10; 0 is no effect, 10 is complete control), Wheat” value ([15]; Rate 250 g/ha, Postemergence) was 0, the “Nutsedge plant response rating” value [16, 17] was 0 and the “Nutsedge plant response rating” value [16, 18] was 0. The “Plant response rating, Nutsedge” value [16, 19] was 0, the “Nutsedge plant response rating” value [16, 20] was 0 and the “Nutsedge plant response rating” value [16, 21] was 0. For the same molecule, the “Nutsedge plant response rating” value [16, 22] was 0, the “Plant response rating (0 to 10; 0 is no effect, 10 is complete control), Nutsedge” value ([16]; Rate 250 g/ha, Postemergence) was 0 and the “Nutsedge plant response rating” value [16, 23] was 0.
